Experimental data reported in patent US9920088B2, “Triterpene derivative and its anti-influenza use” (Peking University, priority 2012, dated 2018).

Assays:
[1] = system: influenza virus A/WSN/33(H1N1); experiment: Cytopathic effect (CPE) inhibition assay, WSN virus in MDCK cells; type: cell-based; settings: for Viral Infectivity (%): Table 6, lower = better inhibition; for anti-influenza virus activity: WSN, CPE; for inhibition at 50 µM: MDCK, Table 9, protective rate against cytopathy, read-out: IAV inhibition rate (%)
[2] = system: MDCK cells; settings: dog, 48 h, 50 μM

| Compound | anti-influenza virus activity ([1]; 50 μM) | inhibition at 50 µM ([1]; 50 μM) | further results |
| --- | --- | --- | --- |
| CC(=O)OCC1O[C@H](OC(=O)[C@]23CCC(C)(C)C[C@H]2C2=CC[C@@H]4[C@@]5(C)CC[C@H](O)C(C)(C)C5CC[C@@]4(C)[C@]2(C)CC3O)C(OC(C)=O)C(OC(C)=O)[C@H]1OC(C)=O (stereo partly drawn) [Compound Q1, 3β,16α-dihydroxy-olean-12-en-28-oic acid-28-O-(2,3,4,6-tetra-O-acetyl-β-D-glucoside)] | some anti-influenza virus activity | – | Viral Infectivity (%) ([1]; 50 μM, WSN MOI=1, 48 h): 78.7%; Cell viability(%) [2]: 110.2% |
| CC1(C)CC[C@]2(C(=O)O[C@H]3OC[C@H](O)C(O)C3O)C(O)C[C@]3(C)C(=CC[C@@H]4[C@@]5(C)CC[C@H](O)C(C)(C)[C@@H]5CC[C@]43C)[C@@H]2C1 (stereo partly drawn) [Compound Q4, 3β,16α-dihydroxy-olean-12-en-28-oic acid-28-O-(β-D-xyloside)] | – | – | Cell viability(%) [2]: 0.1% |
| CC1(C)CC[C@]2(C(=O)O[C@H]3OC[C@@H](O)C(O)C3O)C(O)C[C@]3(C)C(=CC[C@@H]4[C@@]5(C)CC[C@H](O)C(C)(C)[C@@H]5CC[C@]43C)[C@@H]2C1 (stereo partly drawn) [Compound Q6, 3β,16α-dihydroxy-olean-12-en-28-oic acid-28-O-(β-D-arabinoside)] | – | – | Cell viability(%) [2]: 38.4% |
| CC(=O)OCC1O[C@H](NC(=O)[C@]23CCC(C)(C)CC2C2=CCC4[C@@]5(C)CCC(=O)C(C)(C)C5CC[C@@]4(C)[C@]2(C)CC3)C(OC(C)=O)C(OC(C)=O)[C@@H]1OC(C)=O (stereo partly drawn) [Compound Y9, 3-carbonyl-olean-12-en-28-oic acid-28-N-(2,3,4,6-tetra-O-acetyl-β-D-galactoside)] | – | 32.2 ± 1.81% | – |
| CC1(C)CC[C@]2(C(=O)N[C@H]3OC(CO)[C@@H](O)C(O)C3O)CC[C@]3(C)C(=CCC4[C@@]5(C)CCC(=O)C(C)(C)C5CC[C@]43C)C2C1 (stereo partly drawn) [Compound Y10, 3-carbonyl-olean-12-en-28-oic acid-28-N-(β-D-galactoside)] | – | 4.84 ± 3.08% | – |
| CC(=O)OCC1O[C@H](NC(=O)[C@]23CCC(C)(C)CC2C2=CCC4[C@@]5(C)CC[C@H](O)C(C)(C)C5CC[C@@]4(C)[C@]2(C)C[C@H]3O)C(OC(C)=O)C(OC(C)=O)[C@H]1OC(C)=O (stereo partly drawn) [Compound Y11, 3β,16α-dihydroxy-olean-12-en-28-oic acid-28-N-(2,3,4,6-tetra-O-acetyl-β-D-mannoside)] | – | 26.8 ± 3.46% | – |
| CC(=O)OCC1O[C@H](NC(=O)[C@]23CC[C@@H](C)[C@H](C)C2C2=CCC4[C@@]5(C)CC[C@H](O)C(C)(C)C5CC[C@@]4(C)[C@]2(C)C[C@H]3O)C(OC(C)=O)C(OC(C)=O)[C@@H]1OC(C)=O (stereo partly drawn) [Compound Y13, 3β-hydroxy-urs-12-en-28-oic acid-28-N-(2,3,4,6-tetra-O-acetyl-β-D-galactoside)] | significant anti-influenza virus activity higher than Q9 | 76.9 ± 5.53% | – |
| C[C@@H]1CC[C@]2(C(=O)N[C@H]3OC(CO)[C@@H](O)C(O)C3O)CC[C@]3(C)C(=CCC4[C@@]5(C)CC[C@H](O)C(C)(C)C5CC[C@]43C)C2[C@H]1C (stereo partly drawn) [Compound Y14, 3β-hydroxy-urs-12-en-28-oic acid-28-N-(β-D-galactoside)] | significant anti-influenza virus activity higher than Q9 | 62.2 ± 2.96% | – |
| CC(=O)OCC1O[C@H](NC(=O)[C@]23CC[C@@H](C)[C@H](C)C2C2=CCC4[C@@]5(C)CC[C@H](O)C(C)(C)C5CC[C@@]4(C)[C@]2(C)CC3)C(OC(C)=O)C(OC(C)=O)[C@H]1OC(C)=O (stereo partly drawn) [Compound Y15, 3β-hydroxy-urs-12-en-28-oic acid-28-N-(2,3,4,6-tetra-O-acetyl-β-D-mannoside)] | – | 39.8 ± 3.6% | – |
| C[C@@H]1CC[C@]2(C(=O)N[C@H]3OC(CO)[C@H](O)C(O)C3O)CC[C@]3(C)C(=CCC4[C@@]5(C)CC[C@H](O)C(C)(C)C5CC[C@]43C)C2[C@H]1C (stereo partly drawn) [Compound Y16, 3β-hydroxy-urs-12-en-28-oic acid-28-N-(β-D-mannoside)] | – | 48.2 ± 4.22% | – |
| echinocystic acid [EA, reference compound] | some anti-influenza virus activity | – | Viral Infectivity (%) ([1]; […]): 67.9% |
